Measurements as given in US8778931B2, “Substituted hydroxamic acids and uses thereof” (Millennium Pharmaceuticals, Inc., priority 2010, dated 2014).

Legend:
[1] = molecular target: T1, purified human HDAC6 (Homo sapiens, UniProt Q9UBN7); assay: HDAC6 Enzyme Assay; type: biochemical; settings: HDAC6, 0.37 μM concentration; read-out: Percentage Inhibition (%)
T1 construct: purchased BPS Bioscience 5006
T1 sequence (Q9UBN7 1-1215): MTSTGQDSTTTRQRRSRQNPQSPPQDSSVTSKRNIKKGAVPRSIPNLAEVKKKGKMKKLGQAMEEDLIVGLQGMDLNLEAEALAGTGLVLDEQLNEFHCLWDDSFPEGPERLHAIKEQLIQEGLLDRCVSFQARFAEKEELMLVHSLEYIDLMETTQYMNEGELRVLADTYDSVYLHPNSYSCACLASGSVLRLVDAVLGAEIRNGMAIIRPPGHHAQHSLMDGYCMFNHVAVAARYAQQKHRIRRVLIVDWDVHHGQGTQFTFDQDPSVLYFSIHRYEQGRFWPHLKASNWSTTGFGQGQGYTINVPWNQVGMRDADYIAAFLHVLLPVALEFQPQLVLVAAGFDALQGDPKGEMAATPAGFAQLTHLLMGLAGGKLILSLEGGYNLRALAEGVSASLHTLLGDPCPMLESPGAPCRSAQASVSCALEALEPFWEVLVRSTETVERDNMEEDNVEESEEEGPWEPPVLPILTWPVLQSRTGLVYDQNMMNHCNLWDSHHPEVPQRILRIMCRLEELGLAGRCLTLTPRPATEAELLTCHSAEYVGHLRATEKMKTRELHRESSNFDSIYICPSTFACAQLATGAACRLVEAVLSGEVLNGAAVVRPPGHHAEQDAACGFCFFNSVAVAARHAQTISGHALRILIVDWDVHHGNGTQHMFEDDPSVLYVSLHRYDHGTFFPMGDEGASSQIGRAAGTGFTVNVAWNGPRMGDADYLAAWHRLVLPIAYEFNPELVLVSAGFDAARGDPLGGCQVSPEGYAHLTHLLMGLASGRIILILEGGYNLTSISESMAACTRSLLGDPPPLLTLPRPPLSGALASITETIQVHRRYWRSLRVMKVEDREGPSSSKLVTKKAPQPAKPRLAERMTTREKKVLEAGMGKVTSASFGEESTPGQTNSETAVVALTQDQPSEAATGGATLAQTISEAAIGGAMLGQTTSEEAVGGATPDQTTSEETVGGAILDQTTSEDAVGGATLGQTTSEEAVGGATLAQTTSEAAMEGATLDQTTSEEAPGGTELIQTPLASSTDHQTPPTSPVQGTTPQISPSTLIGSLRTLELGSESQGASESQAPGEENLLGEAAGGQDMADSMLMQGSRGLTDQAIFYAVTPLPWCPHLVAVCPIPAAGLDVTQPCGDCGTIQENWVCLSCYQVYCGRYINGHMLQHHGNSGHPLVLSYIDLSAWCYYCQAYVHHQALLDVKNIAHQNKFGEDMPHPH
Experimental: To measure the inhibition of HDAC6 activity, purified human HDAC6 (BPS Bioscience; Cat. No. 5006) is incubated with substrate Ac-Arg-Gly-Lys(Ac)-AMC peptide (Bachem Biosciences; Cat. No. I-1925) for 1 hour at 30° C. in the presence of test compounds or vehicle DMSO control. The reaction is stopped with the HDAC inhibitor trichostatin A (Sigma; Cat. No. T8552) and the amount of Arg-Gly-Lys-AMC generated is quantitated by digestion with trypsin (Sigma; Cat. No. T1426) and subsequent measurement of the amount of AMC released using a fluorescent plate reader (Pherastar; BMG Technologies) set at Ex 340 nm and Em 460 nm. Concentration response curves are generated by calculating the fluorescence increase in test compound-treated samples relative to DMSO-treated controls, and percentage inhibition values at a single concentration or enzyme inhibition (IC50) values are determined from those curves. One skilled in the art will appreciate that the values generated either as percentage inhibition at a single concentration or IC50 values are subject to experimental variation.

[2] = Intrinsic Clearance in Microsomes (dog); type: in vitro ADME; settings: liver microsomes, pH 7.4, 2 μM test compound, read-out: In Vitro Microsomal Intrinsic Clearance, Dog CL int (converted)
Experimental: (§1) The following reagents and stock solutions are required for determination of microsomal clearance.
(§2) • 1. 0.1 M potassium phosphate buffer, pH 7.4: • Stock A (1.0 M): 136.5 g of monobasic potassium phosphate (Sigma #P5379) in 1 L of nanopure water. • Stock B (1.0 M): 174.2 g of dibasic potassium phosphate (Sigma #P8281) in 1 L of nanopure water. • Mix 40.5 mL of stock B+9.5 mL of stock A, adjust pH with monobasic potassium phosphate, qs to 500 mL with nanopure water to give 0.1M potassium phosphate buffer, pH 7.4. • 2. […] NADPH: β-nicotinamide adenine dinucleotide phosphate, reduced form (Sigma #N1630) • 4. UDPGA: Uridine 5′-Diphosphote Glucuronic Acid, Triamnonium salt (Sigma #U-5625) • 5. Alamethicin (Sigma #A-4665-25) • 6. MgCl2: Magnesium chloride (Sigma #M8266) • 7. DMSO: Dimethyl sulfoxide (Sigma #D4540) • 8. 7EC: 7-Ethoxycoumarine (Sigma #E1379), positive control. • 9. Carbutamide (Aldrich cat #38157-8), internal standard. Stock Solutions: • 1. 10 mM stock solution of test compound in DMSO • 200 μM test solution of test compound: 10 μL of 10 mM test compound stock solution+490 μL of 75% ACN/water • 2. 10 mM stock solution of 7-Ethoxycoumarin in DMSO (positive control) • 200 μM test solution of 7-Ethoxycoumarine: 10 μL of 10 mM 7EC stock solution+490 μL of 75% ACN/water. • 3. 10 mM carbutamide stock (internal standard): Dissolve 2.71 mg of carbutimide in 1 mL DMSO. • 1 μM carbutamide solution: 100 μL of 10 mM stock solution in • 1 L of acetonitrile, store at 4° C. • 4. 3 mM MgCl2 in 0.1 M K-phosphate buffer: • Dissolve 28.5 mg of anhydrous MgCl2 in 100 mL of 0.1 M K-phosphate buffer, pH 7.4. • 5. 4× Stock Solution of Cofactors Mixture
(§3) 16 mM NADPH in 0.1 M K-phosphate buffer, pH 7.4 containing MgCl2.
(§4) 20 mM UDPGA in 0.1 M K-phosphate buffer, pH 7.4 containing MgCl2
(§5) Aliquot equal volume of stock solution of NADPH and UDPGA to make the final stock solution of cofactor mixture as follows:
(§6) 10 mM UDPGA • 6. Add 1.25 mL of methanol directly to the bottle of alamethicin. Invert 10 times to dissolve the alamethicin. This yields a 20 mg/ml solution of alamethicin. […]

[3] = Intrinsic Clearance in Microsomes (human); type: in vitro ADME; settings: liver microsomes, pH 7.4, 2 μM test compound, read-out: In Vitro Microsomal Intrinsic Clearance, Human CL int
Experimental: as §1, §2, §3, §4, §5, §6

[4] = Intrinsic Clearance in Microsomes (rat); type: in vitro ADME; settings: liver microsomes, pH 7.4, 2 μM test compound, read-out: In Vitro Microsomal Intrinsic Clearance, Rat CL int (converted)
Experimental: as §1, §2, §3, §4, §5, §6

inhibition at 0.37 µM [1]	CLint scaled at 2 µM [2]	CLint scaled at 2 µM [3]	CLint scaled at 2 µM [4]	Compound
79.7%	< 7.83 mL/min/kg	< 6.33 mL/min/kg	< 14.2 mL/min/kg	CC1(C(=O)N2CCc3cc(C(=O)NO)ccc3C2)CCNCC1 [Compound I-1, N-hydroxy-2-[(4-methylpiperidin-4-yl)carbonyl]-1,2,3,4-tetrahydroisoquinoline-6-carboxamide]
78.3%	< 7.83 mL/min/kg	< 6.33 mL/min/kg	< 14.2 mL/min/kg	CCN1CCC(C)(C(=O)N2CCc3cc(C(=O)NO)ccc3C2)CC1 [Compound I-2, 2-[(1-ethyl-4-methylpiperidin-4-yl)carbonyl]-N-hydroxy-1,2,3,4-tetrahydroisoquinoline-6-carboxamide]
80.7%	–	–	–	O=C(NO)c1ccc2c(c1)CCN(Cc1ccc(C3CCNCC3)cc1)C2 [Compound I-3, N-hydroxy-2-(4-piperidin-4-ylbenzyl)-1,2,3,4-tetrahydroisoquinoline-6-carboxamide]
72.2%	–	–	–	CC1(C(=O)Nc2ccc(CN3CCc4cc(C(=O)NO)ccc4C3)cc2)CCNCC1 [Compound I-4, N-hydroxy-2-(4-{[(4-methylpiperidin-4-yl)carbonyl]amino}benzyl)-1,2,3,4-tetrahydroisoquinoline-6-carboxamide]
46.2%	–	–	–	CC(C)(C)OC(=O)N1CCC(c2ccc(CN3CCc4cc(C(=O)NO)ccc4C3)cc2)CC1 [Compound I-5, tert-butyl 4-(4-{[6-[(hydroxyamino)carbonyl]-3,4-dihydroisoquinolin-2(1H)-yl]methyl}phenyl)piperidine-1-carboxylate]
61%	–	–	–	CC(C)(C)OC(=O)N1CCC(C)(C(=O)Nc2ccc(CN3CCc4cc(C(=O)NO)ccc4C3)cc2)CC1 [Compound I-6, tert-butyl 4-{[(4-{[6-[(hydroxyamino)carbonyl]-3,4-dihydroisoquinolin-2(1H)-yl]methyl}phenyl)amino]carbonyl}-4-methylpiperidine-1-carboxylate]
88.8%	31.7 mL/min/kg	< 6.33 mL/min/kg	46.7 mL/min/kg	CC(C)(C)OC(=O)N1CCC(C)(C(=O)N2CCc3cc(C(=O)NO)ccc3C2)CC1 [Compound I-13, tert-butyl 4-{[6-[(hydroxyamino)carbonyl]-3,4-dihydroisoquinolin-2(1H)-yl]carbonyl}-4-methylpiperidine-1-carboxylate]
